Measurements from PMC7180617, “Biological Evaluation of 3-Benzylidenechromanones and Their Spiropyrazolines-Based Analogues” (Molecules, 2020).
Several values for one entry are separate records, joined by “and”; a condition that tells them apart may be missing. Equal values may be shown once.

Assays:
HL-60 cells [1] = experiment: Cell cycle analysis by flow cytometry (propidium iodide); assay type: cell-based, human; conditions: for cell cycle, G1, mean / cell cycle, G2/M, mean / cell cycle, S, mean: mean of n=2; for cell cycle distribution, G1 / cell cycle distribution, G2 / cell cycle distribution, G2/M: HL-60, 20 h, mean ± SD, n = 2
Description: The next stage examined the effects of the selected compounds on cell cycle progression in HL-60 leukemia cells. […] One million HL-60 (subline CCL 240; cell type: promyeloblast) cells in 3 mL of RPMI 1640 supplemented with 20% FBS were seeded on 6-well plate. […] Fixed cells were stored in −20 °C for 2–3 days. Before analysis, cells were centrifuged (10 min, 1500 rpm, 4 °C) and washed twice with cold PBS. After the second wash, the cells were suspended in 1mL of PBS containing 100 μg of RNase A and incubated in 37 °C for 10 min. Next, 5 μL of solution of propidium iodide (1 mg/mL) was added to each sample and incubated in dark for 30 min at RT. Stained cells were analyzed by flow cytometry (FACS Calibur, BD Biosciences, San Jose, CA, USA). Data from 10,000 gated cells were collected using CellQuestPro software (Ver 6.0, Becton Dickinson) and cell cycle analysis was performed with ModFit LT software (Ver 3.2, Verity Software House, Topsham, ME, USA).

WM-115 cells = test system: WM-115 cells; set-up: method as in PMID 30513785; conditions: MTT; cited from earlier work
HL-60 cells [2] = test system: HL-60 cells; set-up: method as in PMID 30513785; conditions: MTT; cited from earlier work
[3] = Lipophilicity (logP) by RP-TLC; conditions: RP-18 F254S TLC plates
Description: Lipophilicity is one of the most important physicochemical properties in pharmaceutical research. It can be considered a key determinant of the pharmacokinetic properties of a drug. It is commonly measured by the partition coefficient between water and n-octanol, being expressed as logP [14]. […] Knowledge of the partition coefficient is valuable: it is frequently used in structure–activity relationship (SAR) and quantitative structure–activity relationship (QSAR) studies. The experimental lipophilicity of the synthesized compounds, viz. benzylideneflavanones, benzylidenechromanones and spiropyrazolines, was determined using RP-TLC. […] It is important to examine the relationship between structure of the compound and its lipophilicity and cytotoxicity.
The RP-TLC experiments were performed on TLC plates (5 × 10 cm) RP-18 F254S (Merck, Darmstadt, Germany). The synthesized compounds were dissolved in N,N-dimethylformamide DMF (2 mg/mL). […] A DMF-water solvent system was used as mobile phase. […] All experiments were performed at room temperature. The logP parameter was calculated using the equation from the calibration curve.

NALM-6 cells = test system: NALM-6 cells; set-up: method as in PMID 30513785; conditions: MTT; cited from earlier work
plasmid DNA (pcDNAHisC) = experiment: Digestion of plasmid DNA with BamHI restriction nuclease (DNA-cleavage protection); assay type: biochemical; conditions: 10 µM, overnight 37 °C, then BamHI 3 h, agarose gel
Description: This cytotoxicity was tested with regard to its effect on the cell cycle and the ability to modify DNA. In addition to the compounds shown in Table 4, two highly-cytotoxic compounds (11 and 12) were also tested. Their structure and biological activity were described in a previous article. […] To test this hypothesis, plasmid DNA was incubated with the test compounds and subsequently digested with BamH1 endonuclease. […] This conclusion is supported by the presence of the circular form of plasmid DNA after digestion with BamH1.
First, 0.5 µg of plasmid DNA (pcDNAHisC, total length 5.5 kbp) containing a unique BamHI restriction site was dissolved in a 1x BamHI reaction buffer and incubated overnight at 37 °C with the test compounds or daunorubicin, which was used as a positive control. The concentration of the test compounds and daunorubicin in the samples was 10 µM. The final concentration of DMSO in all samples was 10%. In the next step, the reaction mixtures were digested with BamHI restriction endonuclease (2 U/µL) for 3 h at 37 °C. Total reaction volume was 10 µL. Products of the reaction were separated in the 1% agarose gel in TBE buffer. The gel was stained with ethidium bromide and DNA fragments were visualized under a UV lamp (GBox, Syngene, Frederick, MD, USA).

[4] = Figure S3, HL-60, 0.5 × IC50 (µM: quercetin 29, 1 1.5, 7 18, 10 4.7, 11 4.5, 12 6)
[5] = Figure S3, HL-60, 0.5 × IC50, each of two repetitions
[6] = Figure S3, HL-60, 1 × IC50 (µM: quercetin 58, 1 3, 7 35, 10 9.4, 11 9, 12 12)
[7] = Figure S3, HL-60, 1 × IC50, each of two repetitions
[8] = 0.5 × IC50 (µM: quercetin 29, 2 1.5, 7 18, 12 6, 11 4.5, 10 4.7)
[9] = 1 × IC50 (µM: quercetin 58, 2 3, 7 35, 12 12, 11 9, 10 9.4)

For `CCN(CC)c1ccc(/C=C2\COc3ccccc3C2=O)cc1` [Compound 12, (E)-3-(4-N,N-diethylaminobenzylidene)chroman-4-one], the “cell cycle, G1, mean” value (HL-60 cells [1]; [4]) was 19,26%, the “cell cycle, G2/M, mean” value (HL-60 cells [1]; [4]) was 52,38% and the “cell cycle, S, mean” value (HL-60 cells [1]; [4]) was 28,37%. For the same compound, the “cell cycle, G1, single repetitions” value (HL-60 cells [1]; [5]) was 17,44% and 21,08%, the “cell cycle, G2/M, single repetitions” value (HL-60 cells [1]; [5]) was 56,79% and 47,96% and the “cell cycle, S, single repetitions” value (HL-60 cells [1]; [5]) was 22,13% and 34,60%. The “cell cycle, G1, mean” value (HL-60 cells [1]; Figure S3, HL-60, 1 × IC50 (µM in parenthesis: quercetin 58, 1 3, 7 35, 10 9.4, 11 9, 12 12)) was 19,53%, the “cell cycle, G2/M, mean” value (HL-60 cells [1]; [6]) was 52,44% and the “cell cycle, S, mean” value (HL-60 cells [1]; [6]) was 28,03%. The “cell cycle, G2/M, single repetitions” value (HL-60 cells [1]; [7]) was 44,70% and 60,18%, the “cell cycle, S, single repetitions” value (HL-60 cells [1]; [7]) was 27,06% and 29,00% and the “cell cycle distribution, G1” value (HL-60 cells [1]; [8]) was 19.3 ± 2.6%. The “cell cycle distribution, G2” value (HL-60 cells [1]; [8]) was 28.4 ± 8.8%, the “cell cycle distribution, G2/M” value (HL-60 cells [1]; [8]) was 52.4 ± 6.2% and the “cell cycle distribution, G1” value (HL-60 cells [1]; [9]) was 19.5 ± 12.3%. For the same compound, the “cell cycle distribution, G2” value (HL-60 cells [1]; [9]) was 28.0 ± 1.4%, the “cell cycle distribution, G2/M” value (HL-60 cells [1]; [9]) was 52.4 ± 10.9% and the “cells arrested in G2/M phase” value (HL-60 cells [1]; HL-60, concentrations of IC50 and 0.5 × IC50) was 50–60%. The IC50 (WM-115 cells) was 18.1 ± 3.14 µM, the IC50 (HL-60 cells [2]) was 11.8 ± 1.97 µM and the chromatographic logP [3] was 3.43. The IC50 (NALM-6 cells) was 8.69 ± 0.4 µM.

With `COc1cccc2c1C(=O)c1c(O)c3c(c(O)c1C2=O)C[C@@](O)(C(C)=O)C[C@@H]3O[C@H]1C[C@H](N)[C@H](O)[C@H](C)O1` [daunorubicin] the “inhibition of BamHI digestion of plasmid DNA (in words)” value (plasmid DNA (pcDNAHisC)) was “prevented linearization of DNA”.
